Test results taken from US20140005163A1 (NOVARTIS AG, priority 2010, published 2014).
≈ marks a conversion by molar mass, not a printed value. Where two headings read alike, the source gives them in different places.

Assays:
Solubility at pH 6.8 = format: physicochemical
Outline: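 Solubility was measured at pH 6.8 following the cited Zhou et al. (2007) procedure.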

PI3K delta = biological target: T1, PI3K delta (Homo sapiens, UniProt O00329); test: PI3K delta kinase assay (Kinase-Glo luminescence); format: biochemical
T1 construct: for the full-length p110-d subunit are generated and fused by overlapping PCR; p85(iSH2) fusion partner (see partner chain) (N); His tag (C); made in house; host or cells: baculovirus; Tn5 (Trichoplusia ni) or TiniPro insect cells
Outline: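 Inhibition is derived from luminescent detection of unconsumed ATP. The reaction runs for one hour at ambient temperature and contains the δ isoform fusion protein, phosphatidylinositol substrate and low (1 μM) ATP. Eight compound concentrations are tested in single, and a 4-parameter logistic model is used to calculate IC50.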

[1] = system: PKB Ser473 phosphorylation in Rat1-myr-HA-p110 alpha cells; test: Reverse protein array assay, PKB Ser473 phosphorylation in Rat1-myr-p110 alpha cells; format: cell-based; details: 0.5 h, pAkt Ser473, 30 minutes compound incubation, read-out: p-PKB IC50
Outline: (§1)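 Lysates were arrayed at four dilutions, and phospho-PKB Ser473 was quantified by relative fluorescence signal. They came from Rat1-myr-HA-p110 alpha, beta or delta cells exposed for 30 min at 37 °C to an 8-point compound series with 0.2% DMSO constant.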

[2] = system: PKB Ser473 phosphorylation in Rat1-myr-HA-p110 beta cells; test: Reverse protein array assay, PKB Ser473 phosphorylation in Rat1-myr-p110 beta cells; format: cell-based; details: 0.5 h, pAkt Ser473, 30 minutes incubation, read-out: p-PKB IC50
Outline: as §1

[3] = pH 6.8, aqueous buffer, thermodynamic from solid, read-out: solubility

T1 sequence (O00329 with tags, fused parts or gaps limits assumed): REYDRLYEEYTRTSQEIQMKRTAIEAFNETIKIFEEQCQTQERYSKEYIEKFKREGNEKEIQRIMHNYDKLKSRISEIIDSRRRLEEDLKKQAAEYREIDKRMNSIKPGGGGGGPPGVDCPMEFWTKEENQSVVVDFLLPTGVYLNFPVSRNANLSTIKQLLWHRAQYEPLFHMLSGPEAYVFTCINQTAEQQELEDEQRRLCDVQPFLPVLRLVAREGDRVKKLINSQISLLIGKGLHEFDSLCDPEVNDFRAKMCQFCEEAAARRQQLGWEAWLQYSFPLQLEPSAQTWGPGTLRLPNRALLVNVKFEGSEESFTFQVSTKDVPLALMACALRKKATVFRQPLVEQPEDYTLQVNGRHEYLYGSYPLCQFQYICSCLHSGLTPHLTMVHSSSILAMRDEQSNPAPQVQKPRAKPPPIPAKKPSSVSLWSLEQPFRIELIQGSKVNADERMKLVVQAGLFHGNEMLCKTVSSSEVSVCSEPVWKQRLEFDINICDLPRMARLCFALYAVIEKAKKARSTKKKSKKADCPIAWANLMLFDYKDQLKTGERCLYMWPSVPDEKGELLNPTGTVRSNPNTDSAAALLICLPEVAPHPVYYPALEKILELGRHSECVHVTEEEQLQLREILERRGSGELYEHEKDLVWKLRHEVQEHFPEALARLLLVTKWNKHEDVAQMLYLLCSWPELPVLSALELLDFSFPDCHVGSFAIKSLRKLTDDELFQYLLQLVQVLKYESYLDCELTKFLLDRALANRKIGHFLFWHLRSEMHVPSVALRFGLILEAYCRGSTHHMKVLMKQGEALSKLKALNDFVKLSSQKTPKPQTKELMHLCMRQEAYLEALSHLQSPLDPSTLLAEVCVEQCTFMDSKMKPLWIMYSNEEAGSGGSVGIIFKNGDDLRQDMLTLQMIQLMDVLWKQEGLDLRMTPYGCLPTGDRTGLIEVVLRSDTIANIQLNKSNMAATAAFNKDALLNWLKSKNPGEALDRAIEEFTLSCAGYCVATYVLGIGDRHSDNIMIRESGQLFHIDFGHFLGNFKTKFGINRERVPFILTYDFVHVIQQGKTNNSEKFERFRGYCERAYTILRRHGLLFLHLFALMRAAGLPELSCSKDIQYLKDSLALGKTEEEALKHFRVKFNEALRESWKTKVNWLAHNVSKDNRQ

| SMILES | solubility (Solubility at pH 6.8; [3]) [µg/mL] | IC50 (PI3K delta) [nM] | IC50 [1] [nM] | IC50 [2] [nM] | solubility (Solubility at pH 6.8; pH 6.8) [µg/mL] |
| --- | --- | --- | --- | --- | --- |
| CCn1cc(-n2c(=O)n(C)c3cnc4ccc(-c5ccc(NC)nc5)cc4c32)c(C)n1 [Example 118.4, 1-(1-Ethyl-3-methyl-1H-pyrazol-4-yl)-3-methyl-8-(6-methylamino-pyridin-3-yl)-1,3-dihydro-imidazo[4,5-c]quinolin-2-one] | 70 (≈ 169 µM) | 19 | < 5 | < 5 | – |
| Cc1nn(C)cc1-n1c(=O)n(C)c2cnc3ccc(-c4cncc(N(C)S(C)(=O)=O)c4)cc3c21 [Example 121, N-{5-[1-(1,3-Dimethyl-1H-pyrazol-4-yl)-3-methyl-2-oxo-2,3-dihydro-1H-imidazo[4,5-c]quinolin-8-yl]-pyridin-3-yl}-N-methyl-methanesulfonamide] | 47 (≈ 98.4 µM) | 18 | 254 | 444 | – |
| COc1ncc(-c2ccc3ncc4c(c3c2)n(-c2cn(C)nc2C)c(=O)n4C)cc1C(N)=O [Example 125.2, 5-[1-(1,3-Dimethyl-1H-pyrazol-4-yl)-3-methyl-2-oxo-2,3-dihydro-1H-imidazo[4,5-c]quinolin-8-yl]-2-methoxy-nicotinamide] | – | 40 | 82 | 187 | 2 (≈ 4.51 µM) |
| COc1ncc(-c2ccc3ncc4c(c3c2)n(-c2cn(C)nc2C)c(=O)n4C)cc1C#N [Example 132, 5-[1-(1,3-Dimethyl-1H-pyrazol-4-yl)-3-methyl-2-oxo-2,3-dihydro-1H-imidazo[4,5-c]quinolin-8-yl]-2-methoxy-nicotinonitrile] | 17 (≈ 40 µM) | 58 | 51 | 99 | – |
| CNc1ncc(-c2ccc3ncc4c(c3c2)n(-c2c(C)nn(C)c2C)c(=O)n4C)cc1F [Example 141.1, 8-(5-Fluoro-6-methylamino-pyridin-3-yl)-3-methyl-1-(1,3,5-trimethyl-1H-pyrazol-4-yl)-1,3-dihydro-imidazo[4,5-c]quinolin-2-one] | > 431 | 44 | 150 | 162 | – |
| CNc1ncc(-c2ccc3ncc4c(c3c2)n(-c2cn(C)nc2C)c(=O)n4C)cc1F [Example 141.2, 1-(1,3-Dimethyl-1H-pyrazol-4-yl)-8-(5-fluoro-6-methylamino-pyridin-3-yl)-3-methyl-1,3-dihydro-imidazo[4,5-c]quinolin-2-one] | – | 98 | < 5 | < 5 | 2 (≈ 4.79 µM) |
| Cc1nn(C)c(C)c1-n1c(=O)n(C)c2cnc3ccc(-c4cnc(N)c(F)c4)cc3c21 [Example 142.1, 8-(6-Amino-5-fluoro-pyridin-3-yl)-3-methyl-1-(1,3,5-trimethyl-1H-pyrazol-4-yl)-1,3-dihydro-imidazo[4,5-c]quinolin-2-one] | > 417 | 4 | 157 | 300 | – |
| CNc1ncc(-c2ccc3ncc4c(c3c2)n(-c2c(C)nn(C)c2C)c(=O)n4C)cc1Cl [Example 146.4, 8-(5-Chloro-6-methylamino-pyridin-3-yl)-3-methyl-1-(1,3,5-trimethyl-1H-pyrazol-4-yl)-1,3-dihydro-imidazo[4,5-c]quinolin-2-one] | 75 (≈ 167 µM) | 19 | 70 | 127 | – |
| CNc1ncc(-c2ccc3ncc4c(c3c2)n(-c2cc(C)nn2C)c(=O)n4C)cc1Cl [Example 146.5, 8-(5-Chloro-6-methylamino-pyridin-3-yl)-1-(2,5-dimethyl-2H-pyrazol-3-yl)-3-methyl-1,3-dihydro-imidazo[4,5-c]quinolin-2-one] | 3 (≈ 6.91 µM) | 3 | 12 | 29 | – |
| Cc1noc(C)c1-n1c(=O)n(C)c2cnc3ccc(-c4cnc(N)c(Cl)c4)cc3c21 [Example 148.4, 8-(6-Amino-5-chloro-pyridin-3-yl)-1-(3,5-dimethyl-isoxazol-4-yl)-3-methyl-1,3-dihydro-imidazo[4,5-c]quinolin-2-one] | 3 (≈ 7.13 µM) | 45 | 151 | 207 | – |
| CNc1cc(-c2ccc3ncc4c(c3c2)n(-c2cn(C)nc2C)c(=O)n4C)cnc1F [Example 150.2, 1-(1,3-Dimethyl-1H-pyrazol-4-yl)-8-(6-fluoro-5-methylamino-pyridin-3-yl)-3-methyl-1,3-dihydro-imidazo[4,5-c]quinolin-2-one] | 4 (≈ 9.58 µM) | 7 | 7 | 10 | – |
| CCNc1cc(-c2ccc3ncc4c(c3c2)n(-c2c(C)nn(C)c2C)c(=O)n4C)cnc1F [Example 154.1, 8-(5-Ethylamino-6-fluoro-pyridin-3-yl)-3-methyl-1-(1,3,5-trimethyl-1H-pyrazol-4-yl)-1,3-dihydro-imidazo[4,5-c]quinolin-2-one] | – | 37 | 102 | 104 | 2 (≈ 4.49 µM) |
| Cc1ncc(-c2ccc3ncc4c(c3c2)n(-c2cn(C)nc2C)c(=O)n4C)cc1N(C)C [Example 164, 8-(5-Dimethylamino-6-methyl-pyridin-3-yl)-1-(1,3-dimethyl-1H-pyrazol-4-yl)-3-methyl-1,3-dihydro-imidazo[4,5-c]quinolin-2-one] | 400 (≈ 936 µM) | 4 | < 5 | < 5 | – |
| CCNc1ncc(-c2ccc3ncc4c(c3c2)n(-c2cn(C)nc2C)c(=O)n4C)cc1COCC [Example 167, 1-(1,3-Dimethyl-1H-pyrazol-4-yl)-8-(5-ethoxymethyl-6-ethylamino-pyridin-3-yl)-3-methyl-1,3-dihydro-imidazo[4,5-c]quinolin-2-one] | 4 (≈ 8.48 µM) | 25 | 35 | 72 | – |
| CCn1cc(-n2c(=O)n(C)c3cnc4ccc(-c5cnc(N)c(COC)c5)cc4c32)c(C)n1 [Example 168.2, 8-(6-Amino-5-methoxymethyl-pyridin-3-yl)-1-(1-ethyl-3-methyl-1H-pyrazol-4-yl)-3-methyl-1,3-dihydro-imidazo[4,5-c]quinolin-2-one] | 24 (≈ 54.1 µM) | 11 | 12 | 18 | – |
| Cc1ncc(-c2ccc3ncc4c(c3c2)n(-c2cn(C)nc2C)c(=O)n4C)cc1O [Example 185.1, 1-(1,3-Dimethyl-1H-pyrazol-4-yl)-8-(5-hydroxy-6-methyl-pyridin-3-yl)-3-methyl-1,3-dihydro-imidazo[4,5-c]quinolin-2-one] | 17 (≈ 42.5 µM) | 9 | 13 | 46 | – |
| Cc1ncc(-c2ccc3ncc4c(c3c2)n(-c2cn(C)nc2C)c(=O)n4C)cc1OC(CF)CF [Example 189, 1-(1,3-Dimethyl-1H-pyrazol-4-yl)-8-[5-(2-fluoro-1-fluoromethyl-ethoxy)-6-methyl-pyridin-3-yl]-3-methyl-1,3-dihydro-imidazo[4,5-c]quinolin-2-one] | 15 (≈ 31.3 µM) | 6 | < 5 | < 5 | – |
| Cc1nn(C)cc1-n1c(=O)n(C)c2cnc3ccc(-c4cnc(CO)c(OC(C)C)c4)cc3c21 [Example 190, 1-(1,3-Dimethyl-1H-pyrazol-4-yl)-8-(6-hydroxymethyl-5-isopropoxy-pyridin-3-yl)-3-methyl-1,3-dihydro-imidazo[4,5-c]quinolin-2-one] | 5 (≈ 10.9 µM) | 11 | 19 | 16 | – |
